Reference: US7674823B2, “DNA-PK inhibitors” (Cancer Research Technology Limited, priority 2001, dated 2010)
Like-named read-outs stand apart in the source and are kept apart here.

Tests used:
[1] = molecular target: T1, Mammalian DNA-PK, isolated from Hela cell nuclear extract (Homo sapiens, UniProt P78527); assay: DNA-PK inhibition assay (33P-ATP, filter binding); type: biochemical
T1 construct: Mammalian DNA-PK, isolated from Hela cell nuclear extract; endogenous in cells; host or cells: HeLa cell nuclear extract (purified per Gell and Jackson 1999)
Method: In order to assess the inhibitory action of the compounds against DNA-PK in vitro, the following assay was used to determine IC50 values.
The total assay volume per well was 40 μl.
After 10 minutes of incubation at 30° C. the reactions were initiated by the addition of Na-ATP (50 μM final), ^33p-γATP and a 30mer double stranded DNA oligonucleotide (10 ng/μl) in a volume of 10 μl. Designated positive and negative reaction wells were done in combination with compound wells (unknowns) in order to calculate % enzyme activities. The plates were then shaken for 2 minutes and incubated at 30° C. for 45 minutes.
Following the incubation, the reactions were quenched by the addition of 50 μl 30% acetic acid to each well. The plates were then shaken for 5 minutes and the contents of each plate (80 μl from each well) transferred over to a 96 well Polyfiltronics filtration plate, containing P81-phosphocellulose membrane (TRADE MARK)(Whatman, UK). The solutions were vacuum pumped through the membrane and each well membrane washed four times using 300 μl of 15% acetic acid. The well membranes were then air dried and 20 μl of scintillant was added to each well.
The plates were transferred to a TopCount NXT (TRADE MARK) (Packard, UK) for scintillation counting. Values recorded are counts per minute (cpm) following a 1 minute counting time for each well.
The enzyme activity for each compound is then calculated using the following equation: […]
These are determined over a range of different concentrations, normally from 10 μM down to 0.01 μM. Such IC50 values are used as comparative values to identify increased compound potencies.

ATM protein [2] = molecular target: T2, ATM protein (Homo sapiens, UniProt Q13315); assay: ATM inhibition assay (immunoprecipitated ATM, GSTp53N66 substrate); type: biochemical
T2 construct: ATM protein was immunoprecipitated from HeLa cell nuclear extract; endogenous in cells; host or cells: HeLa cell nuclear extract (immunoprecipitate)
Method: (§1) In order to assess the inhibitory action of the compounds against ATM in vitro, the following assay was used to determine IC50 values.
(§2) ATM protein was immunoprecipitated from HeLa cell nuclear extract using rabbit polyclonal antisera raised to the C-terminal ˜500 amino-acid residues of the human ATM protein. The immunoprecipitation was performed according to the methodology described by Banin, S. et al. (1998) Enhanced phosphorylation of p53 by ATM in response to DNA damage. Science 281:1674-1677. 10 μl of immunoprecipitated ATM in Buffer C (50 mM Hepes, pH 7.4, 6 mM MgCl2, 150 mM NaCl, 0.1 mM sodium orthovanadate, 4 mM MnCl2, 0.1 mM dithiothreitol, 10% glycerol) was added to 32.5 μl of buffer C containing 1 μg of the ATM substrate GSTp53N66 in a V-bottomed 96 well polypropylene plate. The GSTp53N66 substrate is the amino terminal 66 amino acid residues of human wild type p53 fused to glutathione S-transferase. ATM phosphorylates p53 on the residue serine 15 (Banin, S. et al. (1998) Enhanced phosphorylation of p53 by ATM in response to DNA damage. Science 281:1674-1677). Varying concentrations of inhibitor were then added. […] After 10 minutes of incubation at 37° C., the reactions were initiated by the addition of 5 μl of 50 μM Na-ATP. After 1 h with shaking at 37° C., 150 μl of phosphate buffered saline (PBS) was added to the reaction and the plate centrifuged at 1500 rpm for 10 minutes. 5 μl of the reaction was then transferred to a 96 well opaque white plate containing 45 μl of PBS to allow the GSTp53N66 substrate to bind to the plate wells. The plate was covered and incubated at room temperature for 1 h with shaking before discarding the contents. The plate wells were washed twice by the addition of PBS prior to the addition of 3% (w/v) bovine serum albumin (BSA) in PBS. The plate was incubated at room temperature for 1 h with shaking before discarding the contents and washing twice with PBS. To the wells, 50 μl of a 1:10,000 dilution of primary phosphoserine-15 antibody (Cell Signaling Technology, #9284L) in 3% BSA/PBS was added to detect the phosphorylation event on the serine 15 residue of p53 elicited by the ATM kinase. After 1 h of incubation at room temperature with shaking, the wells were washed four times with PBS prior to the addition of an anti-rabbit HRP conjugated secondary antibody (Pierce, 31462) with shaking for 1 h at room temperature. The wells were then washed four times with PBS before the addition of chemiluminescence reagent (NEN Renaissance, NEL105). The plate was then shaken briefly, covered with a transparent plate seal and transferred to a TopCount NXT for chemiluminescent counting. Counts per second, following a one second counting time, were recorded for each reaction. The inhibition of ATM activity by compounds was calculated as described above for the DNA-PK assay.
(§3) The selectivity was determined by the following equation: […]

ATM protein [3] = assay: as above; type: biochemical, human; conditions: selectivity ratio from the IC50s for ATM and DNA-PK
Method: as §1, §2, §3

PI 3-kinase (p110α/p85α) = assay: PI 3-kinase inhibition assay; type: biochemical; conditions: selectivity ratio from the IC50s for PI 3-kinase and DNA-PK
From the text: In order to assess the inhibitory action of the compounds against PI 3-kinase in vitro, the following assay was used to determine IC50 values.
Baculoviral recombinant GST-fused PI 3-kinase (p110α/p85α) was purified from Sf9 insect cells using GSH-sepharose affinity chromatography as described (Wymann, M. T et al., (1996) Wortmannin inactivates phosphoinositide 3-kinase by covalent modification of Lys-802, a residue involved in the phosphate transfer reaction. Mol. Cell Biol. 16:1722-1733). PI 3-kinase (1 μl) was diluted in reaction buffer (89 μl of 50 mM Hepes pH 7.5, 150 mM NaCl, 0.1 mM Sodium Orthovanadate, containing 20 μg of phosphatidylinositol) and varying concentrations of inhibitor compound added. […] Reactions were incubated for a further 20 minutes at 37° C., before quenching with the addition of 400 μl of chloroform/methanol (1:1). Reactions were acidified by the addition of 200 μl of 1M HCl, before separation of the organic and aqueous phases by centrifugation at 10,000 g for 30 seconds. The organic phase was transferred to a fresh tube and washed twice with 150 μl of 1M hydrochloric acid/methanol (1:1), discarding the aqueous phase. The washed reaction product was then placed in a white 96-well plate with 100 μl of scintillation fluid and transferred to a TopCount NXT for scintillation counting. Counts per minute, following a one minute counting time, were recorded for each reaction. The inhibition of PI 3-kinase activity by compounds was calculated as described above for the DNA-PK assay.
as §3

[4] = IC50 of less than about 1 μM and/or % inhibition of more than about 50 at 1 μM, read-out: DNA-PK inhibition IC50 (particular efficacy)
[5] = concentration at which 50% of the enzyme activity is inhibited, read-out: DNA-PK Inhibition IC50

T2 sequence (Q13315 whole entry): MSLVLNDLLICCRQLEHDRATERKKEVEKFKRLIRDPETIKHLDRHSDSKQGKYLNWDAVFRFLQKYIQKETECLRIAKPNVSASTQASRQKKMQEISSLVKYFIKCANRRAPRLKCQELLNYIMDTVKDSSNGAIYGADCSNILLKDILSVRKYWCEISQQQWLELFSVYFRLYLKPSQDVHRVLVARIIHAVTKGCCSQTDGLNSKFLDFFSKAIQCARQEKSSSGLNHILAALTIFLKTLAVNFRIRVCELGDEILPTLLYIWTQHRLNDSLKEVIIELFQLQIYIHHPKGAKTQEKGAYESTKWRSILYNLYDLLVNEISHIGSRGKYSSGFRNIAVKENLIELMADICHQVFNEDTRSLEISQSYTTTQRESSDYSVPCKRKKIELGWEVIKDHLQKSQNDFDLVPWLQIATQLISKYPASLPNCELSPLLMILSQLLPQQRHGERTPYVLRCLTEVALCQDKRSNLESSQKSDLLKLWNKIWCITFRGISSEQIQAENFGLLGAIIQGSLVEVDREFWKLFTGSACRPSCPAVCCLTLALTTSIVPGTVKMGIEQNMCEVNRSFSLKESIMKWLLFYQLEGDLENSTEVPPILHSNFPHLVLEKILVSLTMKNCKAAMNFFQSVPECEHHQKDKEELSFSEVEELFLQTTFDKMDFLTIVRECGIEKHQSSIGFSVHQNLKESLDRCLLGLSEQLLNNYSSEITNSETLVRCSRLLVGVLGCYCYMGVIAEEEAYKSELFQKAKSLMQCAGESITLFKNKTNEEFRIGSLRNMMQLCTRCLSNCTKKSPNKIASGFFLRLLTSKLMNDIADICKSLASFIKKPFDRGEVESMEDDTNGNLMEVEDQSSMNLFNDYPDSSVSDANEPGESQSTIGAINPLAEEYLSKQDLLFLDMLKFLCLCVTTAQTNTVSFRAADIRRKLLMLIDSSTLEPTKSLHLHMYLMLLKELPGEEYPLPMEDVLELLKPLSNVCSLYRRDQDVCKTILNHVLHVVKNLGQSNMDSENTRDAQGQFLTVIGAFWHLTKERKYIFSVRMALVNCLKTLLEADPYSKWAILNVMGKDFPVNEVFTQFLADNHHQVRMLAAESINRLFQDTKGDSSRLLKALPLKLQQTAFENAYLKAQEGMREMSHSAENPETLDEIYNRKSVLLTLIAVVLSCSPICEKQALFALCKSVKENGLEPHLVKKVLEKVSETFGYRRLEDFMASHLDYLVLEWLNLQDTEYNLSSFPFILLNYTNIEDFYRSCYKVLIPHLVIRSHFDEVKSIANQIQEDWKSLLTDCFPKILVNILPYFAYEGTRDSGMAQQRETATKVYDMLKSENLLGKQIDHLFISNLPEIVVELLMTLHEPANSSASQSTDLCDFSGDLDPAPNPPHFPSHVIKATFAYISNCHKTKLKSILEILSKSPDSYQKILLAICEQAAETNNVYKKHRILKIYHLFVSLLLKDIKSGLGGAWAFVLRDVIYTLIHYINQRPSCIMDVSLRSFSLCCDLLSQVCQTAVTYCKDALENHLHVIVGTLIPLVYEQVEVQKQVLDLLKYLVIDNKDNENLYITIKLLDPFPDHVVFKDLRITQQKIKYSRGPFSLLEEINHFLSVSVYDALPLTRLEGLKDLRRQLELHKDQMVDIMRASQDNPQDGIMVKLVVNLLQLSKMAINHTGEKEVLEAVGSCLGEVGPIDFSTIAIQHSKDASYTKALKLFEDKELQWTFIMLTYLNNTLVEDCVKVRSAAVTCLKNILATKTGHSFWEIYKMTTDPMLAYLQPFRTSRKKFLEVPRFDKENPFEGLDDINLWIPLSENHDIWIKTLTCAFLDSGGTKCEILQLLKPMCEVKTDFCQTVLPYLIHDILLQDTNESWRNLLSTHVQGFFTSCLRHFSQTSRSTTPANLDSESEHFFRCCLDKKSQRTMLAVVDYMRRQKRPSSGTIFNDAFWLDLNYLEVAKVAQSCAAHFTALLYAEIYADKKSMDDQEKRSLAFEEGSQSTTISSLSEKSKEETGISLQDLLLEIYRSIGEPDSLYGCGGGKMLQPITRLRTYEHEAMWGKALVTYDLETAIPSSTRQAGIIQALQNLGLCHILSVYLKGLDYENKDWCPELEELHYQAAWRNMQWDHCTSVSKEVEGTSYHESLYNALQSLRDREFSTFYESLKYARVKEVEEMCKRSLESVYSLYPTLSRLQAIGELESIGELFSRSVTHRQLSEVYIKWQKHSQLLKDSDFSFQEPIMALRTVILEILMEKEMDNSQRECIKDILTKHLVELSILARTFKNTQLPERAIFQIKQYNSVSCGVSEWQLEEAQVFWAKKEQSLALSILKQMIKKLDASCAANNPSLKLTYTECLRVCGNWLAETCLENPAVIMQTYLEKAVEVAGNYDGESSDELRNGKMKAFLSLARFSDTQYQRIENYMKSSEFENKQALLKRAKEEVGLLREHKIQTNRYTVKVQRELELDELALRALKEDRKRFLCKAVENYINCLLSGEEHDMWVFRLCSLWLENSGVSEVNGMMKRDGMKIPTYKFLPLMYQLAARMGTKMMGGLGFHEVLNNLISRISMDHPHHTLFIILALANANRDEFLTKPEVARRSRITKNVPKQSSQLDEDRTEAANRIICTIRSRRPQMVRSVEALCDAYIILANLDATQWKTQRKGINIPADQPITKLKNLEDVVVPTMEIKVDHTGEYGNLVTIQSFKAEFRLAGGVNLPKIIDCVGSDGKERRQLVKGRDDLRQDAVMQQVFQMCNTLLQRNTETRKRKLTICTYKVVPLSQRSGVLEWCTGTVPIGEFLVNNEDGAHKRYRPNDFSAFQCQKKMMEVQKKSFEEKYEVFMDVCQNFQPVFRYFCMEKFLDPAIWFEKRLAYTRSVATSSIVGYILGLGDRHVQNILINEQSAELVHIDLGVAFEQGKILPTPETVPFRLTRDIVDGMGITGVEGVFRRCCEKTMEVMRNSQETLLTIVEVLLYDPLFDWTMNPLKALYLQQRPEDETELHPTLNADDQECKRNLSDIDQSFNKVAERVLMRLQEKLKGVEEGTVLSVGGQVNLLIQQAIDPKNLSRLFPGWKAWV

SMILES	melting point	IC50 (ATM protein [2])	Δ(DNA-PK/ATM) (ATM protein [3])	further results
O=c1cc(N2CCSCC2)nc2c3ccccc3ccn12 [Compound 6, 2-Thiomorpholin-4-yl-pyrimido[2,1-a]isoquinolin-4-one]	240 to 242 °C	–	–	IC50 [1, 4]: < 1 µM; IC50 [1, 5]: 5 µM
C[C@@H]1CN(c2cc(=O)n3ccc4ccccc4c3n2)C[C@H](C)O1 [Compound 13, 2-((2S,6R)-2,6-Dimethyl-morpholin-4-yl)-pyrimido[2,1-a]isoquinolin-4-one]	208 to 209 °C	–	–	IC50 [1, 5]: 8 µM
O=c1cc(-c2ccc(Cl)cc2)oc(N2CCOCC2)c1 [Compound 284, 2-(4-chlorophenyl)-6-(morpholin-4-yl)-pyran-4-one]	–	> 100 µM	>286	–
COc1ccccc1-c1cc(=O)cc(N2CCOCC2)o1 [Compound 286, 2-(2-methoxyphenyl)-6-(morpholin-4-yl)-pyran-4-one]	125 to 127 °C	24 µM	80	–
COc1cccc(-c2cc(=O)cc(N3CCOCC3)o2)c1 [Compound 287, 2-(3-methoxyphenyl)-6-(morpholin-4-yl)-pyran-4-one]	115 to 117 °C	> 50 µM	>125	–
O=c1cc(-c2ccccc2F)oc(N2CCOCC2)c1 [Compound 290, 6-(2-fluorophenyl)-2-(morpholin-4-yl)pyran-4-one]	137 to 138 °C	–	–	–
O=c1cc(-c2cccc(F)c2)oc(N2CCOCC2)c1 [Compound 291, 6-(3-fluorophenyl)-2-(morpholin-4-yl)pyran-4-one]	169 to 170 °C	> 50 µM	>167	–
O=c1cc(N2CCOCC2)oc2c(-c3ccccc3)cccc12 [Compound 294, 8-Phenyl-2-(morpholin-4-yl)-chromen-4-one]	–	> 100 µM	> 67	Δ(DNA-PK/PI 3-K) (PI 3-kinase (p110α/p85α)): 1
O=c1cc(N2CCCCC2)oc2c1ccc1ccccc12 [Compound 295, 2-piperidin-1-yl-benzo[h]chromen-4-one]	205 to 207 °C	–	–	–
O=c1cc(N2CCOCC2)oc2ccc(-c3ccccc3)cc12 [Compound 298, 2-(Morpholin-4-yl)-6-phenylchromen-4-one]	218 to 220 °C	–	–	–
Cc1cccc2c(=O)cc(N3CCOCC3)oc12 [Compound 302, 8-Methyl-2-morpholin-4-yl-chromen-4-one]	148 °C	–	–	–
COc1cccc2c(=O)cc(N3CCOCC3)oc12 [Compound 303, 8-Methoxy-2-morpholin-4-yl-chromen-4-one]	165 °C	–	–	–
O=c1cc(N2CCOCC2)oc2c(OS(=O)(=O)C(F)(F)F)cccc12 [Compound 305, Trifluoro-methanesulfonic acid 2-morpholin-4-yl-4-oxo-4H-chromen-8-yl ester]	177.8 to 178.9 °C	–	–	–
O=c1cc(N2CCOCC2)oc2cc(OS(=O)(=O)C(F)(F)F)ccc12 [Compound 306, Trifluoro-methanesulfonic acid 2-morpholin-4-yl-4-oxo-4H-chromen-7-yl ester]	143 to 145 °C	–	–	–
O=c1cc(N2CCOCC2)oc2cc(O)ccc12 [Compound 307, 7-hydroxy-2-(morpholin-4-yl)-chromen-4-one]	–	> 100 µM	>111	IC50 [1, 5]: 0.9 µM
O=c1cc(N2CCOCC2)oc2ccc(Br)cc12 [Compound 308, 6-Bromo-2-morpholin-4-yl-chromen-4-one]	147 to 149 °C	–	–	–
C[C@@H]1CN(c2cc(=O)c3ccc4ccccc4c3o2)C[C@H](C)O1 [Compound 309, 2-(2,6-cis-dimethyl-morpholin-4-yl)-benzo[h]chromen-4-one]	211 to 212.5 °C	–	–	–
O=c1cc(N2CCNCC2)oc2c1ccc1ccccc12 [Compound 311, 2-piperazin-1-yl-benzo[h]chromen-4-one]	208 to 209 °C	–	–	–
O=c1cc(N2CCCC(CO)C2)oc2c1ccc1ccccc12 (centres unmarked) [Compound 313, 2-(3-Hydroxymethyl-piperidin-1-yl)-benzo[h]chromen-4-one]	209 to 210 °C	–	–	–
CN1CCN(c2cc(=O)c3ccc4ccccc4c3o2)CC1 [Compound 314, 2-(4-Methyl-piperazin-1-yl)-benzo[h]chromen-4-one]	184 to 185 °C	–	–	–
O=c1cc(NCC2CCCO2)oc2c1ccc1ccccc12 (centres unmarked) [Compound 316, 2-[(Tetrahydrofuran-2-ylmethyl)-amino]-benzo[h]chromen-4-one]	139 to 140 °C	–	–	–
O=c1cc(N2CCOCC2)oc2cc(OCc3ccccc3Cl)ccc12 [Compound 417, 7-(2-Chlorobenzyloxy)-2-morpholin-4-yl-chromen-4-one]	167 to 168 °C	–	–	–
O=c1cc(N2CCOCC2)oc2cc(OCc3ccc4ccccc4c3)ccc12 [Compound 418, 7-(Naphthalen-2-ylmethoxy)-2-morpholin-4-yl-chromen-4-one]	263 to 264 °C	> 100 µM	>222	IC50 [1, 4]: < 1 µM; IC50 [1, 5]: 0.45 µM
O=c1cc(N2CCOCC2)oc2cc(OCC3CCCCC3)ccc12 [Compound 419, 7-Cyclohexylmethoxy-2-(morpholin-4-yl)-chromen-4-one]	187 to 188 °C	–	–	IC50 [1, 5]: 1 µM
O=C(Oc1ccc2c(=O)cc(N3CCOCC3)oc2c1)c1ccccc1 [Compound 423, 7-Benzoyloxy-2-(morpholin-4-yl)-chromen-4-one]	204 to 206 °C	> 100 µM	>33	IC50 [1, 5]: 3 µM
